Laboratory results published in the supplement of paper PMC10307832.

Experiments:
Assay in all cases: relative viability (nuclei count vs DMSO), 5 days (fraction); higher = more cells survive
BI-D1870 + Vorinostat = compound: CC(C)CCN1c2nc(Nc3cc(F)c(O)c(F)c3)ncc2N(C)C(=O)C1C [BI-D1870] + O=C(CCCCCCC(=O)Nc1ccccc1)NO [Vorinostat] (partner 1 µM)
In short: (§1)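 Five library-drug doses in √10 steps were combined with a fixed anchor-drug dose, or a single drug was given alone, by pin tool to lung cancer cell lines in 1536-well plates the day after seeding. Nuclei were stained and counted after 5 days. Relative viability is the nuclei count in treated wells over that in vehicle wells, taken as the median of duplicate plates.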

Zebularine + Luminespib = compound: O=c1ncccn1[C@@H]1O[C@H](CO)[C@@H](O)[C@H]1O [Zebularine] + CCNC(=O)c1noc(-c2cc(C(C)C)c(O)cc2O)c1-c1ccc(CN2CCOCC2)cc1 [Luminespib] (partner 0.01 µM)
In short: as §1

Zebularine + Tozasertib = compound: O=c1ncccn1[C@@H]1O[C@H](CO)[C@@H](O)[C@H]1O [Zebularine] + Cc1cc(Nc2cc(N3CCN(C)CC3)nc(Sc3ccc(NC(=O)C4CC4)cc3)n2)n[nH]1 [Tozasertib] (partner 0.1 µM)
In short: as §1

Zebularine + Olaparib = compound: O=c1ncccn1[C@@H]1O[C@H](CO)[C@@H](O)[C@H]1O [Zebularine] + O=C(c1cc(Cc2n[nH]c(=O)c3ccccc23)ccc1F)N1CCN(C(=O)C2CC2)CC1 [Olaparib] (partner 8 µM)
In short: as §1

Cell Line | relative viability (BI-D1870 + Vorinostat; first compound 0.04 µM) | relative viability (BI-D1870 + Vorinostat; first compound 0.1265 µM) | relative viability (BI-D1870 + Vorinostat; first compound 0.4 µM) | relative viability (BI-D1870 + Vorinostat; first compound 1.265 µM) | relative viability (BI-D1870 + Vorinostat; first compound 4 µM) | relative viability (Zebularine + Luminespib; first compound 1 µM) | relative viability (Zebularine + Luminespib; first compound 3.162 µM) | relative viability (Zebularine + Luminespib; first compound 10 µM) | relative viability (Zebularine + Luminespib; first compound 31.62 µM) | relative viability (Zebularine + Luminespib; first compound 100 µM) | relative viability (Zebularine + Tozasertib; first compound 1 µM) | relative viability (Zebularine + Tozasertib; first compound 3.162 µM) | relative viability (Zebularine + Tozasertib; first compound 10 µM) | relative viability (Zebularine + Tozasertib; first compound 31.62 µM) | relative viability (Zebularine + Tozasertib; first compound 100 µM) | relative viability (Zebularine + Olaparib; first compound 1 µM) | relative viability (Zebularine + Olaparib; first compound 3.162 µM) | relative viability (Zebularine + Olaparib; first compound 10 µM) | relative viability (Zebularine + Olaparib; first compound 31.62 µM) | relative viability (Zebularine + Olaparib; first compound 100 µM)
NCI-H460 | 0.922 | 0.643 | 0.672 | 0.37 | 0.0691 | 0.0314 | 0.0246 | 0.0322 | 0.0331 | 0.0289 | 0.61 | 0.499 | 0.529 | 0.193 | 0.0561 | 0.433 | 0.405 | 0.22 | 0.162 | 0.133
EKVX | 0.779 | 0.707 | 0.64 | 0.814 | 0.703 | 0.863 | 0.847 | 0.867 | 0.807 | 0.653 | 0.44 | 0.409 | 0.3 | 0.374 | 0.335 | 0.952 | 0.813 | – | 0.757 | 0.664
NCI-H358 | 0.834 | 0.61 | 0.519 | 0.386 | 0.229 | 0.355 | 0.462 | 0.251 | 0.269 | 0.184 | 0.111 | 0.101 | 0.0883 | 0.108 | 0.0887 | 0.67 | 0.597 | 0.343 | 0.295 | 0.225
EPLC-272H | 0.523 | 0.663 | 0.484 | 0.297 | 0.148 | 0.247 | 0.238 | 0.237 | 0.406 | 0.154 | 0.222 | 0.179 | 0.156 | 0.317 | 0.256 | 0.955 | 0.774 | – | 0.66 | 0.41
NCI-H1395 | 0.774 | 0.641 | 0.801 | 0.705 | 0.597 | 0.564 | 0.666 | 0.456 | 0.536 | 0.372 | 0.72 | 0.707 | 0.647 | 0.501 | 0.479 | 0.465 | 0.47 | 0.558 | 0.438 | 0.448
NCI-H2126 | 0.802 | 0.718 | 0.719 | 0.735 | 0.578 | 1.01 | 0.85 | 0.889 | 0.795 | 0.379 | 0.911 | 0.807 | 0.727 | 0.791 | 0.479 | 1.08 | 0.855 | 0.778 | 0.664 | 0.43
LXF-289 | 0.681 | 0.738 | 0.695 | 0.695 | 0.527 | 0.729 | 0.75 | 0.444 | 0.382 | 0.202 | 0.19 | 0.169 | 0.124 | 0.0978 | 0.116 | 1.06 | 0.995 | 0.549 | 0.31 | 0.275
NCI-H2009 | 0.776 | 0.629 | 0.76 | 0.599 | 0.461 | 1.09 | 1.04 | 0.793 | 0.859 | 0.3 | 0.891 | 0.737 | 0.497 | 0.659 | 0.297 | 0.624 | 0.648 | 0.461 | 0.438 | 0.263
NCI-H522 | 1.02 | 1.09 | 1.01 | 0.907 | 0.94 | 0.928 | 0.881 | 0.99 | 0.776 | 0.665 | 0.549 | 0.526 | 0.527 | 0.522 | 0.577 | 0.746 | 0.647 | 0.577 | 0.546 | 0.573
NCI-H2405 | 1.04 | 1.03 | 1 | 0.974 | 0.9 | 0.705 | 0.779 | 0.651 | 0.797 | 0.498 | 0.758 | 0.81 | 0.704 | 0.724 | 0.485 | 0.905 | 0.782 | 0.533 | 0.564 | 0.511
NCI-H1755 | 0.938 | 0.738 | 0.705 | 0.849 | 0.788 | 0.481 | 0.426 | 0.39 | 0.522 | 0.44 | 0.639 | 0.531 | 0.512 | 0.663 | 0.488 | 0.911 | 0.891 | 0.729 | 0.74 | 0.472
LOU-NH91 | 0.991 | 0.859 | 0.876 | 0.858 | 0.655 | 0.332 | 0.33 | 0.479 | 0.298 | 0.3 | 0.7 | 0.641 | 0.68 | 0.704 | 0.384 | 0.906 | 0.891 | 0.704 | 0.775 | 0.469
NCI-H3122 | 1.05 | 0.633 | 0.858 | 1.21 | 0.998 | 0.11 | 0.0829 | – | 0.111 | 0.0803 | 0.391 | 0.401 | 0.262 | 0.626 | 0.375 | 0.727 | 0.631 | 0.358 | 0.478 | 0.369
HCC-827 | 0.771 | 0.846 | 0.818 | 0.988 | 0.765 | 0.756 | 0.909 | 0.353 | 0.582 | 0.257 | 0.417 | 0.445 | 0.306 | 0.373 | 0.196 | 0.752 | 0.607 | 0.487 | 0.415 | 0.252
SK-LU-1 | 0.823 | 0.615 | 0.71 | 0.625 | 0.35 | 0.231 | 0.187 | 0.22 | 0.229 | 0.183 | 0.378 | 0.34 | 0.254 | 0.302 | 0.29 | 0.434 | 0.351 | 0.333 | 0.313 | 0.289
NCI-H1975 | 0.747 | 0.617 | 0.686 | 0.664 | 0.425 | 0.249 | 0.196 | 0.241 | 0.199 | 0.14 | 1.11 | 0.684 | 0.412 | 0.293 | 0.23 | 0.84 | 0.574 | 0.277 | 0.257 | 0.251
